Experimental data taken from patent publication US8952024B2, “Herbicidal pyrimidone derivatives” (E I du Pont de Nemours and Company, priority 2009, dated 2015).

Experiments:
Type in all cases: in vivo
[1] = system: johnsongrass (Sorghum halepense); assay: Test B pre-/postemergence plant response
Outline: (§1)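 Ratings reflect visual comparison with untreated controls 13 to 15 days after application, from 0 (no effect) to 100 (complete control). Application was preemergence to seeded loam/sand soil or postemergence to 1- to 4-leaf plants, with compound in a non-phytotoxic, surfactant-containing solvent.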

[2] = system: green foxtail (Setaria viridis); assay: Test B pre-/postemergence plant response
Outline: as §1

[3] = system: giant foxtail (Setaria faberii); assay: Test B pre-/postemergence plant response
Outline: as §1

[4] = system: lambsquarters (Chenopodium album); assay: Test B pre-/postemergence plant response
Outline: as §1

corn (Zea mays) = assay: Test B pre-/postemergence plant response
Outline: as §1

[5] = system: ragweed (common ragweed, Ambrosia elatior); assay: Test B pre-/postemergence plant response
Outline: as §1

kochia (Kochia scoparia) = assay: Test B pre-/postemergence plant response; settings: Postemergence; for Plant response rating, Kochia: scale 0 (no effect) to 100 (complete control)
Outline: as §1

soybean (Glycine max) = assay: Test B pre-/postemergence plant response
Outline: as §1

wild oat (Avena fatua) = assay: Test B pre-/postemergence plant response
Outline: as §1

[6] = system: bermudagrass (Cynodon dactylon); assay: Test B pre-/postemergence plant response
Outline: as §1

[7] = system: cocklebur (Xanthium strumarium); assay: Test B pre-/postemergence plant response
Outline: as §1

[8] = system: pigweed (Amaranthus retroflexus); assay: Test B pre-/postemergence plant response
Outline: as §1

[9] = system: umbrella sedge (Cyperus difformis); assay: Test B flooded paddy test; settings: for Plant response rating, Sedge, Umbrella: Flood (flooded paddy test), 13 to 15 days
Outline: (§2)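 Greenhouse-held for 13 to 15 days, treated pots were compared visually with controls and scored 0–100 (0, no effect). Treatment had been made into paddy water kept at 3 cm above the soil, with plants at the 2-leaf stage.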

[10] = system: ducksalad (Heteranthera limosa); assay: Test B flooded paddy test; settings: for Plant response rating, Ducksalad: Flood (flooded paddy test), 13 to 15 days
Outline: as §2

rice (Oryza sativa) = assay: Test B flooded paddy test; settings: for Plant response rating, Rice: Flood (flooded paddy test), 13 to 15 days
Outline: as §2

[11] = system: barnyardgrass (Echinochloa crus-galli); assay: Test B flooded paddy test; settings: for Plant response rating, Barnyardgrass: Flood (flooded paddy test), 13 to 15 days
Outline: as §2

[12] = 250 g ai/ha, Preemergence, 0 to 100 scale
[13] = Postemergence, 62 g ai/ha, scale 0 (no effect) to 100 (complete control), 13 to 15 days
[14] = Postemergence, 125 g ai/ha, visual rating after 13 to 15 days, scale 0 (no effect) to 100 (complete control)
[15] = Postemergence, 250 g ai/ha, scale 0 to 100
[16] = Preemergence, 31 g ai/ha, scale 0 to 100 (0 no effect, 100 complete control)
[17] = Preemergence, 62 g ai/ha, scale 0 to 100, 0 no effect, 100 complete control
[18] = Preemergence, 125 g ai/ha, 0 to 100 scale
[19] = Postemergence, 31 g ai/ha, scale 0 to 100 (0 no effect, 100 complete control)
[20] = 250 g ai/ha, flooded paddy test, visual rating on 0 to 100 scale (0 no effect, 100 complete control) after 13 to 15 days
[21] = 31 g ai/ha, scale of 0 to 100 where 0 is no effect and 100 is complete control
[22] = 62 g ai/ha, scale 0 to 100, 0 is no effect, 100 is complete control
[23] = 125 g ai/ha, scale 0 to 100, 0 is no effect, 100 is complete control

O=C1CCCC(O)=C1C(=O)c1cnc(-c2cccc(Cl)c2)n(-c2ccccc2)c1=O [Compound 34]
Plant response rating, Johnsongrass [1, 12]: 100 | Plant response rating, Johnsongrass [1, 13]: 90 | Plant response rating, Johnsongrass [1, 14]: 95 | Johnsongrass plant response rating [1, 15]: 100 | Plant response rating, Johnsongrass [1, 16]: 20 | Plant response rating, Johnsongrass [1, 17]: 75 | Johnsongrass plant response rating [1, 18]: 98 | Plant response rating, Foxtail, Green [2, 12]: 100 | Plant response rating, Foxtail, Green [2, 19]: 70 | Plant response rating, Foxtail, Green [2, 13]: 90 | Plant response rating, Foxtail, Green [2, 14]: 90 | Foxtail, Green plant response rating [2, 15]: 95 | Plant response rating, Foxtail, Green [2, 16]: 50 | Plant response rating, Foxtail, Green [2, 17]: 70 | Foxtail, Green plant response rating [2, 18]: 90 | Plant response rating, Foxtail, Giant [3, 12]: 100 | Plant response rating, Foxtail, Giant [3, 19]: 85 | Plant response rating, Foxtail, Giant [3, 13]: 90 | Plant response rating, Foxtail, Giant [3, 14]: 95 | Foxtail, Giant plant response rating [3, 15]: 95 | Plant response rating, Foxtail, Giant [3, 16]: 15 | Plant response rating, Foxtail, Giant [3, 17]: 55 | Foxtail, Giant plant response rating [3, 18]: 90 | Plant response rating, Lambsquarters [4, 12]: 100 | Plant response rating, Lambsquarters [4, 13]: 98 | Plant response rating, Lambsquarters [4, 14]: 100 | Lambsquarters plant response rating [4, 15]: 100 | Plant response rating, Lambsquarters [4, 16]: 100 | Plant response rating, Lambsquarters [4, 17]: 100 | Lambsquarters plant response rating [4, 18]: 100 | Plant response rating, Corn (corn (Zea mays); [12]): 0 | Plant response rating, Corn (corn (Zea mays); [19]): 0 | Plant response rating, Corn (corn (Zea mays); [13]): 0 | Plant response rating, Corn (corn (Zea mays); [14]): 45 | Corn plant response rating (corn (Zea mays); [15]): 50 | Plant response rating, Corn (corn (Zea mays); [16]): 0 | Plant response rating, Corn (corn (Zea mays); [17]): 0 | Corn plant response rating (corn (Zea mays); [18]): 0 | Plant response rating, Ragweed [5, 12]: 90 | Plant response rating, Ragweed [5, 13]: 85 | Plant response rating, Ragweed [5, 14]: 95 | Plant response rating, Ragweed [5, 16]: 75 | Plant response rating, Ragweed [5, 17]: 80 | Ragweed plant response rating [5, 18]: 90 | Plant response rating, Kochia (kochia (Kochia scoparia); 62 g ai/ha, 13 to 15 days): 95 | Plant response rating, Kochia (kochia (Kochia scoparia); 125 g ai/ha, visual rating after 13 to 15 days): 100 | Kochia plant response rating (kochia (Kochia scoparia); 250 g ai/ha, scale 0 to 100): 100 | Plant response rating, Soybean (soybean (Glycine max); [12]): 80 | Plant response rating, Soybean (soybean (Glycine max); [13]): 95 | Plant response rating, Soybean (soybean (Glycine max); [14]): 95 | Plant response rating, Soybean (soybean (Glycine max); [16]): 0 | Plant response rating, Soybean (soybean (Glycine max); [17]): 45 | Soybean plant response rating (soybean (Glycine max); [18]): 65 | Plant response rating, Oat, Wild (wild oat (Avena fatua); [12]): 60 | Plant response rating, Oat, Wild (wild oat (Avena fatua); [13]): 50 | Plant response rating, Oat, Wild (wild oat (Avena fatua); [14]): 60 | Plant response rating, Oat, Wild (wild oat (Avena fatua); [16]): 10 | Plant response rating, Oat, Wild (wild oat (Avena fatua); [17]): 10 | Oat, Wild plant response rating (wild oat (Avena fatua); [18]): 30 | Plant response rating, Bermudagrass [6, 12]: 100 | Plant response rating, Bermudagrass [6, 19]: 75 | Plant response rating, Bermudagrass [6, 13]: 95 | Plant response rating, Bermudagrass [6, 14]: 95 | Bermudagrass plant response rating [6, 15]: 98 | Plant response rating, Bermudagrass [6, 16]: 100 | Plant response rating, Bermudagrass [6, 17]: 100 | Bermudagrass plant response rating [6, 18]: 100 | Plant response rating, Cocklebur [7, 12]: 85 | Plant response rating, Cocklebur [7, 19]: 0 | Plant response rating, Cocklebur [7, 13]: 25 | Plant response rating, Cocklebur [7, 14]: 85 | Cocklebur plant response rating [7, 15]: 95 | Plant response rating, Cocklebur [7, 16]: 0 | Plant response rating, Cocklebur [7, 17]: 55 | Cocklebur plant response rating [7, 18]: 75 | Plant response rating, Pigweed [8, 12]: 100 | Plant response rating, Pigweed [8, 13]: 90 | Plant response rating, Pigweed [8, 14]: 98 | Plant response rating, Pigweed [8, 16]: 100 | Plant response rating, Pigweed [8, 17]: 100 | Pigweed plant response rating [8, 18]: 100 | Plant response rating, Flood, Sedge, Umbrella [9, 20]: 40 | Plant response rating, Sedge, Umbrella [9, 21]: 0 | Plant response rating, Sedge, Umbrella [9, 22]: 0 | Plant response rating, Sedge, Umbrella [9, 23]: 0 | Plant response rating, Flood, Ducksalad [10, 20]: 65 | Plant response rating, Ducksalad [10, 21]: 0 | Plant response rating, Ducksalad [10, 22]: 0 | Plant response rating, Ducksalad [10, 23]: 30 | Plant response rating, Flood, Rice (rice (Oryza sativa); [20]): 0 | Plant response rating, Rice (rice (Oryza sativa); [21]): 0 | Plant response rating, Rice (rice (Oryza sativa); [22]): 0 | Plant response rating, Rice (rice (Oryza sativa); [23]): 0 | Plant response rating, Flood, Barnyardgrass [11, 20]: 0 | Plant response rating, Barnyardgrass [11, 21]: 0 | Plant response rating, Barnyardgrass [11, 22]: 0 | Plant response rating, Barnyardgrass [11, 23]: 0
